The series in a line: Viscosity of paste comprising BCG-CWS, co-axial bicylindrical viscometer. The format is physicochemical. The settings on record: unit not given. On the procedure:
“Viscosity” as used herein means a value determined by dynamic viscoelasticity measurement, for example, values obtained using a co-axial bicylindrical viscometer. In the present invention, viscosity may be measured using a co-axial bicylindrical viscometer manufactured by Rheology Co., Ltd (Model MR-300, Soliquid meter) at 25° C. under nitrogen atmosphere. One poise represents 0.1 Pa·s (pascal.sec).
The viscosity of the paste was measured at 25° C. using a co-axial bicylindrical viscometer manufactured by Rheology Co., Ltd (Model MR-300, Soliquid meter). The viscosity was measured to be 0.545 poise.

In the case of `CC(C)CCCC(C)CCCC(C)CCCCC(C)CCCC(C)CCCC(C)C` (stereo not shown) [squalane], the viscosity turned out to be 0.236.

Values taken from US20050250175A1, “Bacterial cell wall skeleton component preparaion” (priority 2002, published 2005).
